# Literature values as cited in patent US20250319149A1, “COMPOSITIONS FOR TREATING IMBALANCES OF THE GUT MICROBIOTA” (Provexis Natural Products Limited, priority 2022, published 2025).
# Tested on: TMAO-induced atherosclerosis
# Conditions: mice; Chen et al.
smiles,measurement,value
Oc1ccc(C=Cc2cc(O)cc(O)c2)cc1 [resveratrol],TMAO-induced atherosclerosis,attenuated
